# “Also recorded” adds a separate entry of the source. Like-named read-outs stand apart in the source and are kept apart here.
# Key:
# [1] = tested on: amyloid-β oligomers (AβOs) in MC65 cells; assay: Western blot (6E10) of AβOs production in MC65 cells; format: cell-based; settings: MC65 cells after removal of TC, 6E10 antibody
# Method: MC65 cells (4×10^5 cells/mL) were treated with indicated compounds for 30 h and then were lysed by sonication in a Tricine buffer solution and boiled for 5 min. Protein samples were collected from the supernatant after centrifugation of the samples at 12,800×g for 5 min, and then quantified using the Bradford method. Equal amounts of protein (20.0 μg) were separated by SDS-PAGE on a gel (Bio-Rad) and transferred onto a PVDF membrane (Bio-Rad). The blots were blocked with 5% milk in TBS-Tween 20 (0.1%) solution at room temperature for 1 h and then probed with the 6E10 antibody overnight at 4° C. The blots were washed twice in TB S-Tween 20 for 15 min, and then incubated with a 1:1000 dilution of horseradish peroxidase-conjugated secondary antibody in a 5% milk/PBS-Tween 20 solution at room temperature for 1 h. After washing twice in TBS-Tween 20 for 15 min, the proteins were visualized by a Western Blot Chemiluminescence Reagent (Thermo Fischer Scientific, Waltham, Mass.). The blots were also probed with antibodies against α-tubulin to ensure equal loading of proteins.
# [2] = target: T1, Aβ42 (Homo sapiens, UniProt P05067); assay: AFM analysis of Aβ42 fibril and oligomer formation; format: biochemical; settings: 1:1 ratio with Aβ42, 24 h
# T1 construct: purchased American Peptide, Inc. (Sunnyvale, Calif.)
# T1 sequence (P05067 672-713 limits assumed): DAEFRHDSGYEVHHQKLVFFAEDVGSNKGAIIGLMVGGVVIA
# Method: Aβ42 oligomers and fibrils were prepared based on reported procedures.^43 Indicated compounds were incubated with Aβ42 at a 1:1 ratio for both conditions for 24 h. Samples were loaded on mica, washed extensively with water, and dried overnight at room temperature before AFM analysis. The morphology of the Aβ42 aggregates was assessed using an atomic force microscope (Dimension Icon, Bruker) operating in tapping mode in air. The scan rate was varied between 1 Hz and 0.5 Hz depending on the tracking quality. The silicon tips (Bruker mpp2100-100) have a sharpness of less than 5 nm and a force constant between 3 and 5 N/m along with a resonant frequency rated between […]. All images were taken with 512 points per line, with a 1:1 ratio. Images were processed using Nanoscope analysis software version 1.20 and Image-J (from the National Institutes of Health).
# [3] = In vivo BBB penetration experiment, LC-MS/MS of plasma and brain; set-up: species or system CD-1 male mice
# Method: Briefly, ten week old CD-1 male mice were purchased from Harlan Laboratories (Frederich, Md.). Compound 9 was diluted to a concentration of 15 mg/mL in a solution with 2% DMSO and 10% Cremophor in PBS, and was administered via oral gavage at a final dosage of 50 mg/kg. Two groups of mice (n=6/group) were used to determine the plasma and brain concentrations of the compound at various time-points. […] Afterwards, the right atrium was removed to allow exsanguination, and the left ventricular apex was cannulated with a 24 G needle and perfused with 30 mL of warm (37° C.) heparinized normal saline solution to enable perfusion of all the organs and complete blood washout. The perfused brains were then collected, rapidly washed in normal saline, blot-dried, and frozen in liquid nitrogen. Brain samples were then analyzed by the LC-MS/MS.
# For brain samples, half a brain was weighed and diluted with 1.0 mL of acetonitrile and then mixed well. For plasma samples, 0.01 mL of plasma was diluted with 0.99 mL of acetonitrile and then mixed well. After mixing, samples were centrifuged at 15,000 rpm and the supernatant was transferred to a new tube and evaporated to dryness using spin vacuum. The samples were then reconstituted with an 80:20 solution of 1% acetic acid in acetonitrile: 1% acetic acid in water, and a volume of 0.025 mL was then injected into the LC-MS/MS. The LC/MS/MS method employed positive electrospray ionization (ESI) with a selected reaction monitoring (SRM) mode. Compound 9 was monitored using the following SRM transitions: 381→174, 130, and 159. Chromatographic separation was achieved under gradient conditions using a Waters Acquity® UPLC, with a reversed phase column (Gemini 5u C18 110 Å, 100 mm×2.0 mm; 5 um, Phenomenex Inc., Torrance, Calif.) with a mobile phase composition of 1% acetic acid in water (mobile phase A) and 1% acetic acid in acetonitrile (mobile phase B). The initial gradient consisted of 30% B for 1 min, 30% to 95% B from 1 to 3 min, hold for 1 min at 95% B, and then equilibrate at 30% B for 2.5 min. The total run time was 6.5 min. Results were processed using Analyst 1.5.2 software. Absolute recovery, precision and accuracy, and matrix effects experiments produced an efficient method to continue sample analysis. Calibration curves were made with freshly prepared samples and calculated using peak area versus concentration with a linear or quadratic regression. Accuracy fell in the range of 85% to 115%.
# To accurately quantify the amount of 7 that is delivered into brain tissue and rule out the possibility of biased interpretation from vascular trapping, we perfused the mice to wash out the vascular blood completely prior to collecting brain tissues. After oral administration, plasma samples were collected at 0.25, 0.5, 1, and 24 hours, and brain samples were collected at 1 and 24 hours.
compound,measurement,setting,value
"COc1ccc2[nH]cc(CCNC(=O)CC(=O)CCc3ccc(O)cc3)c2c1 [Compound 7, 5-(4-hydroxy-phenyl)-3-oxo-pentanoic acid [2-(5-methoxy-1H-indol-3-yl)-ethyl]-amide]","effect on the production of AβOs (tetramers, pentamers, heptamers)",[1],moderate inhibitory effects; also recorded: dose-dependently suppressed
same,inhibition of fibrillization and oligomerization of Aβ42 (AFM),[2],no inhibition
same,concentration at 1 h,"[3]; male, CD-1, mouse, brain, po, 50 mg/kg, perfused mice, n = 6, 1 h, read-out: Brain concentration, 1 h",555 ± 188 nM
same,concentration at 24 h,"[3]; male, CD-1, mouse, brain, po, 50 mg/kg, perfused mice, n = 6, 24 h, read-out: Brain concentration, 24 h",47.4 ± 11.2 nM
same,concentration at 15 min,"[3]; male, CD-1, mouse, plasma, po, 50 mg/kg, mice, n = 6, 15 min",773 ± 310 nM
same,concentration at 30 min,"[3]; male, CD-1, mouse, plasma, po, 50 mg/kg, mice, n = 6, 30 min",795 ± 301 nM
same,concentration at 1 h,"[3]; male, CD-1, mouse, plasma, po, 50 mg/kg, mice, n = 6, 1 h, read-out: Plasma concentration, 1 h",883 ± 350 nM
same,concentration at 24 h,"[3]; male, CD-1, mouse, plasma, po, 50 mg/kg, mice, n = 6, 24 h, read-out: Plasma concentration, 24 h",30.5 ± 12 nM
same,BBB penetration after oral administration,"[3]; oral 50 mg/kg, mice",confirmed to cross the blood-brain barrier; also recorded: confirming its BBB permeability
same,"Plasma concentration, 15 min","[3]; oral 50 mg/kg, mice, n = 6, 15 min",773.80 ± 309.86 nM
same,"Plasma concentration, 1 h","[3]; oral 50 mg/kg, mice, n = 6, 1 h",883.12 ± 350.36 nM
same,"Plasma concentration, 24 h","[3]; oral 50 mg/kg, mice, n = 6, 24 h",30.53 ± 11.96 nM
same,"Brain concentration, 1 h","[3]; oral 50 mg/kg, perfused mice, n = 6, 1 h",555.40 ± 188.44 nM
same,"Brain concentration, 24 h","[3]; oral 50 mg/kg, perfused mice, n = 6, 24 h",47.41 ± 11.19 nM

# From patent publication US9738605B2, “Hybrid compounds of curcumin and melatonin as neuroprotectants for neurodegenerative disorders” (VIRGINIA COMMONWEALTH UNIVERSITY, priority 2013, dated 2017)
